We go through 5 compounds from patent US20030158126A1, “Method of treatment for fungal infections with a synergistic formulation of antifungal agents” (priority 2002, published 2003).

The structures appear in SMILES notation.

For assay [1], the system named is Candida albicans. Nature of the assay: Synergism of menthol, menthyl acetate or their ratios with antifungal drugs (MIC, FIC, fold enhancement). It counts as cell-based, Candida albicans (MTCC1637 equivalent to ATCC 18804). As to conditions: for synergism of the individual compound with Clotrimazole, Amphotericin B and Nystatin: individual compound at a concentration of 0.25 μg/ml. As for the experimental part: In the present invention Candida albicans (MTCC1637 equivalent to ATCC 18804)=Interdigital mycoses, Neotype strain, production of citric acid) is used for all the experimentations (MTCC=Microbial type culture collection, Institute of Microbial Technology, Chandigarh, India). […]
The fractional inhibitory concentrations (FIC) are calculated by dividing the MIC of the combination with the MIC of antifungal compound alone. The enhancement is calculated by dividing the MIC of the antifungal compound with the MIC of the combination. […] Similarly, the maximum enhancement of Amphotericin is detected for the same set of ratios (2114, 2115, 2116). The enhancement of Nystatin is detected in the combinations with ratios 2112 and 2114. (TABLE 3)

The test system of assay [2] is Candida albicans. Put plainly: Minimum inhibitory concentration (MIC) in broth culture of Candida albicans. It is filed as cell-based, Candida albicans (MTCC1637 equivalent to ATCC 18804). The note with it: for activity of the components at the concentrations used: proportional concentrations within 0.25 μg/ml. How it is done:
In the present invention Candida albicans (MTCC1637 equivalent to ATCC 18804)=Interdigital mycoses, Neotype strain, production of citric acid) is used for all the experimentations (MTCC=Microbial type culture collection, Institute of Microbial Technology, Chandigarh, India).
The minimum inhibitory concentrations (MIC) of the compound menthyl acetate and menthol is determined in broth culture of Candida albicans and is estimated to be […] and 500 μg/ml respectively.
A combination of the two compounds menthol and menthyl acetate in 1:1 ratio is evaluated for synergistic action if any. […] Therefore this combination is further tested for activity against Candida in combination with known antifungal drugs.
Following ratios are prepared by dissolving menthol in menthyl acetate. The ratios are tested for minimum inhibitory concentration in broth cultures of Candida albicans. As mentioned in the TABLE 1, the MIC of ratios are several folds lower than the additive MIC of individual compounds. Identification numbers of the ratios are the numbers given to identify the combination and mean nothing more than this. […] All these combinations are found to be synergistic for antifungal activities.

Setting [3] is: antifungal drug alone or with menthol/menthyl acetate combination at 0.25 μg/ml.

As to `Clc1ccccc1C(c1ccccc1)(c1ccccc1)n1ccnc1` [Clotrimazole (C), Clotrimazole], the MIC in the assay with Candida albicans [1] (Candida albicans, Clotrimazole (C) + Menthyl acetate (μg/ml), read-out: MIC) stood at 1.25 µg/mL; in the assay with Candida albicans [1] (Clotrimazole (C) + Menthol (μg/ml)) it was 1.25 μ/ml; in the assay with Candida albicans [1] (setting [3]), 1.25 µg/mL.
For `CC(=O)OC1CC(C)CCC1C(C)C` (stereo not drawn) [menthyl acetate], the “minimum inhibitory concentrations (MIC)” value with Candida albicans [2] (broth culture of Candida albicans, printed as a dilution fraction) was 1/400. Further, in the assay on Candida albicans [2], the “activity of the components at the concentrations used” value is reported as “do not have any activity”. In the assay with Candida albicans [1], the “synergism of the individual compound with Clotrimazole, Amphotericin B and Nystatin” value is reported as “neither menthol nor menthyl acetate could lower the MIC”.
Take `C[C@@H]1[C@H](O)[C@@H](C)/C=C/C=C/CC/C=C/C=C/C=C/C=C/C(O[C@H]2O[C@H](C)[C@@H](O)[C@H](N)[C@@H]2O)CC2O[C@](O)(CC(O)C(O)CCC(O)CC(O)CC(O)CC(=O)O[C@H]1C)CC(O)C2C(=O)O` (stereo partly drawn) [Nystatin (N), Nystatin]: the MIC in the assay on Candida albicans [1] (Nystatin (N) + Menthol (μg/ml)), in the assay on Candida albicans [1] (Nystatin (N) + Menthyl acetate (μg/ml)) and in the assay with Candida albicans [1] (setting [3]) was 5.0 µg/mL each time.
Turning to `CC1CCC(C(C)C)C(O)C1` (stereo not drawn) [menthol], the MIC in the assay with Candida albicans [2] (broth culture of Candida albicans, read-out: minimum inhibitory concentrations (MIC)) was 500 µg/mL. Also, in the assay with Candida albicans [2], the “activity of the components at the concentrations used” value was “do not have any activity”. Besides, the “synergism of the individual compound with Clotrimazole, Amphotericin B and Nystatin” value in the assay on Candida albicans [1] was “neither menthol nor menthyl acetate could lower the MIC”.
For `C[C@@H]1[C@H](O)[C@@H](C)/C=C/C=C/C=C/C=C/C=C/C=C/C=C/[C@H](O[C@@H]2O[C@H](C)[C@@H](O)[C@H](N)[C@@H]2O)C[C@@H]2O[C@](O)(C[C@@H](O)C[C@@H](O)[C@H](O)CC[C@@H](O)C[C@@H](O)CC(=O)O[C@H]1C)C[C@H](O)[C@H]2C(=O)O` [Amphotericin B (A), Amphotericin B], the MIC with Candida albicans [1] (Amphotericin B (A) + Menthyl acetate (μg/ml)) stood at 2.5 µg/mL; with Candida albicans [1] (Candida albicans, Amphotericin B (A) + Menthol (μg/ml), read-out: MIC) it was 2.5 µg/mL; with Candida albicans [1] (setting [3]) it was 2.5 µg/mL.
